From patent publication US20230089605A1, “USE OF DOXYCYCLINE, RESVERATROL, IVERMECTIN, AND RELATED CHEMICALLY MODIFIED COMPOUNDS TO TREAT OR PREVENT VIRAL INFECTIONS” (Ardestat Biologics, LLC, priority 2021, published 2023)

Molecular target: T1, MMP9 (Homo sapiens, UniProt P14780)
T1 construct: purchased Abcam ab139449
Assay: MMP9 inhibitor screening assay kit (Fluorometric), Abcam
Type: biochemical
Conditions: result given in words only
Experimental: Doxycycline, resveratrol, colchicine, and ivermectin were assessed at the indicated concentrations using the MMP9 Inhibitor Screening Assay Kit (abcam), according to the manufacturer's instructions.
Inhibition of MMP9 was determined using the MMP9 inhibitor screening assay kit (Fluorometric) from Abcam (Cat#ab139449) according to the manufacturer's instructions. Unquenching of a fluorogenic peptide by MMP9 was monitored for 10 minutes in the presence or absence of inhibitory compounds, using a fluorescent microplate reader (Ex/Em=328/420). Reaction velocity (V) in RFU/minute was used to determine the % of remaining enzymatic activity, relative to untreated control, according to the following equation: (Vinhibitor/Vcontrol)×100 (FIG. 2).

T1 sequence (P14780 107-444 limits assumed): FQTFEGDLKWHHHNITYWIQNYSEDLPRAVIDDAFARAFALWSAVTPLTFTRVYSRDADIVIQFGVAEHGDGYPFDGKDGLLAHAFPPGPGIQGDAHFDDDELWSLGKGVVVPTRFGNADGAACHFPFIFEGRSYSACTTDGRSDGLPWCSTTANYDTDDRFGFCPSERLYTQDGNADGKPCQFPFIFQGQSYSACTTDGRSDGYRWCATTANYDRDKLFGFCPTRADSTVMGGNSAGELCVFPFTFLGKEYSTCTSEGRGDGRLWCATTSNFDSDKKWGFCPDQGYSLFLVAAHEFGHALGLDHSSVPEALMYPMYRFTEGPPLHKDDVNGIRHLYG

Molecule | inhibition of MMP activity (% of remaining enzymatic activity relative to untreated control) (fluorogenic peptide unquenching monitored 10 minutes, FIG. 2) | interference with the MMP-inhibiting effects of doxycycline and resveratrol
Oc1ccc(C=Cc2cc(O)cc(O)c2)cc1 [resveratrol] | inhibited MMP activity but to a much more modest extent compared to doxycycline | –
ivermectin | – | has not been shown to interfere with these MMP-inhibiting effects
